According to PubChem BioAssay AID330 (DTP/NCI, 2004):
Inconclusive results and toxic doses are left out.

System: P388 leukemia ip, CD2F1 mice, survival T/C
Assay: NCI In Vivo Anticancer Drug Screen. Data for tumor model P388 Leukemia (intraperitoneal) in CD2F1 (CDF1) mice
Conditions: endpoint: median survival time, higher = longer survival
Outline: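 Mice carrying the transplanted tumor received test compound or vehicle. Survival was recorded in each group, and the value is the treated-group measurement divided by that of the vehicle-treated control group.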

[1] = dose: 100.0 mg/kg/injection, schedule: Q04DX003 (ip), vehicle: saline with Tween-80
[2] = dose: 200.0 mg/kg/injection, schedule: Q04DX003 (ip), vehicle: saline with Tween-80
[3] = dose: 100.0 mg/kg/injection, schedule: Q04DX003 (ip), vehicle: saline
[4] = dose: 200.0 mg/kg/injection, schedule: Q04DX003 (ip), vehicle: saline
[5] = dose: 50.0 mg/kg/injection, schedule: Q01DX005 (ip), vehicle: Klucel (hydroxypropylcellulose) (HPC)
[6] = dose: 100.0 mg/kg/injection, schedule: Q01DX005 (ip), vehicle: Klucel (hydroxypropylcellulose) (HPC)
[7] = dose: 200.0 mg/kg/injection, schedule: Q01DX005 (ip), vehicle: Klucel (hydroxypropylcellulose) (HPC)
[8] = dose: 50.0 mg/kg/injection, schedule: Q01DX005 (ip), vehicle: saline with Tween-80
[9] = dose: 100.0 mg/kg/injection, schedule: Q01DX005 (ip), vehicle: saline with Tween-80
[10] = dose: 200.0 mg/kg/injection, schedule: Q01DX005 (ip), vehicle: saline with Tween-80
[11] = dose: 50.0 mg/kg/injection, schedule: Q01DX009 (ip), vehicle: saline with Tween-80
[12] = dose: 100.0 mg/kg/injection, schedule: Q01DX009 (ip), vehicle: saline with Tween-80
[13] = dose: 50.0 mg/kg/injection, schedule: Q01DX009 (ip), vehicle: Klucel (hydroxypropylcellulose) (HPC)

CN(C)c1ccc(C(N)=O)cn1
T/C (dose: 1.56 mg/kg/injection, schedule: Q01DX009 (ip), vehicle: saline with Tween-80): 109 % of control | T/C (dose: 6.25 mg/kg/injection, schedule: Q01DX009 (ip), vehicle: saline with Tween-80): 90 % of control | T/C (dose: 12.5 mg/kg/injection, schedule: Q04DX003 (ip), vehicle: saline with Tween-80): 109 % of control | T/C (dose: 25.0 mg/kg/injection, schedule: Q04DX003 (ip), vehicle: saline with Tween-80): 118 % of control | T/C (dose: 50.0 mg/kg/injection, schedule: Q04DX003 (ip), vehicle: saline with Tween-80): 118 % of control

OC(Cc1cnc2ccccc2n1)(C(F)(F)F)C(F)(F)F
T/C [1]: 109 % of control | T/C [2]: 95 % of control | T/C (dose: 400.0 mg/kg/injection, schedule: Q04DX003 (ip), vehicle: saline with Tween-80): 90 % of control

S=C1NCCCN1
T/C (dose: 25.0 mg/kg/injection, schedule: Q04DX003 (ip), vehicle: saline): 99 % of control | T/C (dose: 50.0 mg/kg/injection, schedule: Q04DX003 (ip), vehicle: saline): 104 % of control | T/C [3]: 100 % of control | T/C [4]: 100 % of control

Cc1cn(C23CC4CC(CC(C4)C2)C3)c(=O)[nH]c1=O
T/C [5]: 101 % of control | T/C [6]: 101 % of control | T/C [7]: 97 % of control

COc1ccc(CNSC(c2ccccc2)(c2ccccc2)c2ccccc2)cc1
T/C [8]: 98 % of control | T/C [9]: 101 % of control | T/C [10]: 97 % of control

C[n+]1ccc(Nc2ccc(NC(=O)c3ccc(Nc4cc[n+](C)c5ccc(N)cc45)cc3)cc2)cc1
T/C (dose: 1.0 mg/kg/injection, schedule: Q04DX003 (ip), vehicle: Klucel (hydroxypropylcellulose) (HPC)): 116 % of control | T/C (dose: 2.0 mg/kg/injection, schedule: Q01DX005 (ip), vehicle: suspension in saline): 187 % of control | T/C (dose: 2.0 mg/kg/injection, schedule: Q04DX003 (ip), vehicle: Klucel (hydroxypropylcellulose) (HPC)): 166 % of control | T/C (dose: 2.88 mg/kg/injection, schedule: Q04DX003 (ip), vehicle: water): 158 % of control | T/C (dose: 4.0 mg/kg/injection, schedule: Q01DX005 (ip), vehicle: suspension in saline): 239 % of control | T/C (dose: 4.0 mg/kg/injection, schedule: Q04DX003 (ip), vehicle: Klucel (hydroxypropylcellulose) (HPC)): 168 % of control | T/C (dose: 4.8 mg/kg/injection, schedule: Q04DX003 (ip), vehicle: water): 167 % of control | T/C (dose: 8.0 mg/kg/injection, schedule: Q01DX005 (ip), vehicle: suspension in saline): 283 % of control | T/C (dose: 8.0 mg/kg/injection, schedule: Q04DX003 (ip), vehicle: Klucel (hydroxypropylcellulose) (HPC)): 237 % of control | T/C (dose: 8.0 mg/kg/injection, schedule: Q04DX003 (ip), vehicle: water): 200 % of control | T/C (dose: 9.0 mg/kg/injection, schedule: Q04DX003 (ip), vehicle: water): 170 % of control | T/C (dose: 13.3 mg/kg/injection, schedule: Q04DX003 (ip), vehicle: water): 238 % of control | T/C (dose: 16.0 mg/kg/injection, schedule: Q04DX003 (ip), vehicle: Klucel (hydroxypropylcellulose) (HPC)): 270 % of control | T/C (dose: 32.0 mg/kg/injection, schedule: Q04DX003 (ip), vehicle: Klucel (hydroxypropylcellulose) (HPC)): 294 % of control

CCN(CC)c1ccc(/C=N/Nc2c3c(nc4ccccc24)CCCC3)cc1
T/C (dose: 6.25 mg/kg/injection, schedule: Q01DX005 (ip), vehicle: saline): 100 % of control | T/C (dose: 12.5 mg/kg/injection, schedule: Q01DX005 (ip), vehicle: saline): 99 % of control

CCCCCCc1cc(C(=O)NN)c2ccccc2n1
T/C [5]: 102 % of control | T/C [6]: 99 % of control | T/C [7]: 96 % of control

O=[N+]([O-])c1ccc(NCc2ccccc2)nc1
T/C [11]: 107 % of control | T/C [12]: 117 % of control | T/C (dose: 200.0 mg/kg/injection, schedule: Q01DX009 (ip), vehicle: saline with Tween-80): 112 % of control

CNC(=O)NC(c1ccc2c(c1)OCO2)c1cc2c(cc1O)OCO2 (stereo unspecified)
T/C (dose: 60.0 mg/kg/injection, schedule: Q01DX005 (ip), vehicle: Klucel (hydroxypropylcellulose) (HPC)): 87 % of control | T/C (dose: 120.0 mg/kg/injection, schedule: Q01DX005 (ip), vehicle: Klucel (hydroxypropylcellulose) (HPC)): 87 % of control

C=C1C(=O)OC2/C=C(/C)CC/C=C(\C(=O)O)CC/C=C(\C)CCC12 (stereo unspecified)
T/C [1]: 113 % of control | T/C [2]: 110 % of control

CN(C)CCCNc1cccc2c1C(=O)c1c(NCCCN(C)C)cccc1C2=O
T/C (dose: 3.75 mg/kg/injection, schedule: Q01DX009 (ip), vehicle: saline): 99 % of control | T/C (dose: 7.5 mg/kg/injection, schedule: Q01DX009 (ip), vehicle: saline): 105 % of control | T/C (dose: 12.5 mg/kg/injection, schedule: Q01DX009 (ip), vehicle: water): 98 % of control | T/C (dose: 15.0 mg/kg/injection, schedule: Q01DX009 (ip), vehicle: saline): 106 % of control | T/C (dose: 25.0 mg/kg/injection, schedule: Q01DX009 (ip), vehicle: water): 95 % of control | T/C (dose: 30.0 mg/kg/injection, schedule: Q01DX009 (ip), vehicle: saline): 96 % of control | T/C (dose: 60.0 mg/kg/injection, schedule: Q01DX009 (ip), vehicle: saline): 90 % of control

COc1ccc(C(=O)N2C(=O)CCC2=O)cc1
T/C [13]: 109 % of control | T/C (dose: 100.0 mg/kg/injection, schedule: Q01DX009 (ip), vehicle: Klucel (hydroxypropylcellulose) (HPC)): 115 % of control | T/C (dose: 100.0 mg/kg/injection, schedule: Q04DX003 (ip), vehicle: Klucel (hydroxypropylcellulose) (HPC)): 113 % of control | T/C (dose: 200.0 mg/kg/injection, schedule: Q04DX003 (ip), vehicle: Klucel (hydroxypropylcellulose) (HPC)): 113 % of control | T/C (dose: 400.0 mg/kg/injection, schedule: Q04DX003 (ip), vehicle: Klucel (hydroxypropylcellulose) (HPC)): 114 % of control

CC1N(N2C(=O)CS(=O)(=O)C2C)C(=O)CS1(=O)=O (stereo unspecified)
T/C [8]: 90 % of control | T/C [9]: 95 % of control | T/C [10]: 89 % of control

O=c1ssc2ncccc12
T/C (dose: 60.0 mg/kg/injection, schedule: Q01DX005 (ip), vehicle: saline with Tween-80): 104 % of control | T/C (dose: 120.0 mg/kg/injection, schedule: Q01DX005 (ip), vehicle: saline with Tween-80): 103 % of control | T/C (dose: 240.0 mg/kg/injection, schedule: Q01DX005 (ip), vehicle: saline with Tween-80): 117 % of control

CCN(CC)CCCC(Nc1c2ccc(Cl)cc2nc2ccc(OC)cc12)c1cccc2ccccc12 (stereo unspecified)
T/C (dose: 6.0 mg/kg/injection, schedule: Q01DX005 (ip), vehicle: Klucel (hydroxypropylcellulose) (HPC)): 103 % of control | T/C (dose: 12.0 mg/kg/injection, schedule: Q01DX005 (ip), vehicle: Klucel (hydroxypropylcellulose) (HPC)): 106 % of control | T/C (dose: 25.0 mg/kg/injection, schedule: Q01DX005 (ip), vehicle: Klucel (hydroxypropylcellulose) (HPC)): 106 % of control

C[C@]12CCC[C@@H](O)[C@H]1O2
T/C [3]: 104 % of control | T/C [4]: 103 % of control | T/C (dose: 400.0 mg/kg/injection, schedule: Q04DX003 (ip), vehicle: saline): 109 % of control

Cc1cc2cc3c(=O)n(C)c(=O)nc-3n(C)c2cc1C
T/C [8]: 92 % of control | T/C [9]: 98 % of control | T/C [10]: 95 % of control

CCCCCCC(C)NN (stereo unspecified)
T/C [1]: 86 % of control

N=c1nc2ccc3ccccc3c2nn1-c1ccc([N+](=O)[O-])cc1
T/C (dose: 1.5 mg/kg/injection, schedule: Q01DX009 (ip), vehicle: Klucel (hydroxypropylcellulose) (HPC)): 108 % of control | T/C (dose: 3.0 mg/kg/injection, schedule: Q01DX009 (ip), vehicle: Klucel (hydroxypropylcellulose) (HPC)): 106 % of control | T/C (dose: 6.0 mg/kg/injection, schedule: Q01DX009 (ip), vehicle: Klucel (hydroxypropylcellulose) (HPC)): 108 % of control | T/C (dose: 12.5 mg/kg/injection, schedule: Q01DX009 (ip), vehicle: Klucel (hydroxypropylcellulose) (HPC)): 103 % of control | T/C (dose: 25.0 mg/kg/injection, schedule: Q01DX009 (ip), vehicle: Klucel (hydroxypropylcellulose) (HPC)): 108 % of control | T/C [13]: 119 % of control

O=[N+]([O-])c1ccc(-c2nc(/C=N/N3CCOCC3)cs2)s1
T/C (dose: 25.0 mg/kg/injection, schedule: Q01DX009 (ip), vehicle: saline with Tween-80): 110 % of control | T/C [11]: 115 % of control | T/C [12]: 114 % of control
